Experimental data from patent publication US8288552B2, “Dihydropyridone amidesas P2X7 modulators” (Roche Palo Alto LLC, priority 2008, dated 2012).

Target: T1, P2X7 (UniProt Q99572)
T1 sequence (Q99572 1-595): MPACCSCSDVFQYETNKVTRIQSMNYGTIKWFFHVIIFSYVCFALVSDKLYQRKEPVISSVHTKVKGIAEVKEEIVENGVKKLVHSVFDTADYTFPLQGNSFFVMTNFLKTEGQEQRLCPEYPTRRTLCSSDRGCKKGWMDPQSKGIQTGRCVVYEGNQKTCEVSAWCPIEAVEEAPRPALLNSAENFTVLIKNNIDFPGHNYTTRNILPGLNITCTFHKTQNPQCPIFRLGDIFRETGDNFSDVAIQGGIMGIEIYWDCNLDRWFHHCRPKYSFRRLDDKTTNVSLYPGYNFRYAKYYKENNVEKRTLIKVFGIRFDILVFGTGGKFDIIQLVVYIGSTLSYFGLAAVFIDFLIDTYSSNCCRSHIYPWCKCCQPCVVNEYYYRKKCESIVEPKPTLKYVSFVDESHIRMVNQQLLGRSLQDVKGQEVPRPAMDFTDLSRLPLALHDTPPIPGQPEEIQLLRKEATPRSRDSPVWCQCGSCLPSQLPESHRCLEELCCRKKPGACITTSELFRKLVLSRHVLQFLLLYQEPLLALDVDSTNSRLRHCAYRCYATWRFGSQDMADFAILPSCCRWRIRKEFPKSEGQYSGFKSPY
Test: P2X7 pKi of Table 1
Type: cell-based
Summary of the method: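 Human P2X7 in 1321N1 cells and rat P2X7 in HEK293 cells, loaded with fluo-3 for 1 hr at 37° C, then exposed to antagonist for 20 min at room temperature. BzATP agonist was used at 100 μM final (human) or 5 μM final (rat), with fluorescence read for 5 min. The response was normalized to maximal fluorescence evoked by 5 μM ionomycin.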

Row | SMILES | pKi
1 | O=C1C[C@@H](c2ccc(F)cc2)C(C(=O)Nc2ccccc2C(F)(F)F)=CN1 [Compound 95, (S)-4-(4-Fluoro-phenyl)-6-oxo-1,4,5,6-tetrahydro-pyridine-3-carboxylic acid(2-trifluoromethyl-phenyl)-amide] | 6.26
2 | COc1cc(Br)c(NC(=O)C2=CNC(=O)CC2c2ccc(F)cc2)cc1OC (stereo not shown) [Compound 7, 4-(4-Fluoro-phenyl)-6-oxo-1,4,5,6-tetrahydro-pyridine-3-carboxylic acid(2-bromo-4,5-dimethoxy-phenyl)-amide] | 7.463
3 | Cc1cc(F)c(OCCO)cc1NC(=O)C1=CN(C)C(=O)C[C@H]1c1ccc(F)cc1 [Compound 143, (S)-4-(4-Fluoro-phenyl)-1-methyl-6-oxo-1,4,5,6-tetrahydro-pyridine-3-carboxylic acid[4-fluoro-5-(2-hydroxy-ethoxy)-2-methyl-phenyl]-amide] | 6.535
4 | O=C1CC(c2cccc(F)c2)C(C(=O)Nc2cccc3c2CCC3)=CN1 (stereo not shown) [Compound 66, 4-(3-Fluoro-phenyl)-6-oxo-1,4,5,6-tetrahydro-pyridine-3-carboxylic acid indan-4-ylamide] | 6.915
5 | Cc1cc(Cl)c(OCCO)cc1NC(=O)C1=CNC(=O)CC1c1cccc(F)c1 (stereo not shown) [Compound 62, 4-(3-Fluoro-phenyl)-6-oxo-1,4,5,6-tetrahydro-pyridine-3-carboxylic acid [4-chloro-5-(2-hydroxy-ethoxy)-2-methyl-phenyl]-amide] | 7.595
6 | CNC(=O)COc1cc(NC(=O)C2=CNC(=O)C[C@H]2c2ccc(F)cc2)c(C)cc1Cl [Compound 134, (S)-4-(4-Fluoro-phenyl)-6-oxo-1,4,5,6-tetrahydro-pyridine-3-carboxylic acid(4-chloro-2-methyl-5-methylcarbamoylmethoxy-phenyl)-amide] | 6.24
7 | COc1cc(Br)c(NC(=O)C2=CN(C)C(=O)C[C@H]2c2ccc(F)cc2)cc1OC [Compound 44, (S)-4-(4-Fluoro-phenyl)-1-methyl-6-oxo-1,4,5,6-tetrahydro-pyridine-3-carboxylic acid(2-bromo-4,5-dimethoxy-phenyl)-amide] | 5.875
8 | Cc1cc(C)c(OCCO)cc1NC(=O)C1=CNC(=O)C[C@H]1c1ccc(F)cc1 [Compound 114, (S)-4-(4-Fluoro-phenyl)-6-oxo-1,4,5,6-tetrahydro-pyridine-3-carboxylic acid [5-(2-hydroxy-ethoxy)-2,4-dimethyl-phenyl]-amide] | 7.815
9 | O=C1C[C@H](c2ccc(F)cc2)C(C(=O)Nc2cc(OCCO)c(Cl)cc2Br)=CN1 [Compound 75, (R)-4-(4-Fluoro-phenyl)-6-oxo-1,4,5,6-tetrahydro-pyridine-3-carboxylic acid[2-bromo-4-chloro-5-(2-hydroxy-ethoxy)-phenyl]-amide] | 6.245
10 | Cc1cc(CCO)ccc1NC(=O)C1=CNC(=O)C[C@H]1c1ccc(F)cc1 [Compound 105, (S)-4-(4-Fluoro-phenyl)-6-oxo-1,4,5,6-tetrahydro-pyridine-3-carboxylic acid[4-(2-hydroxy-ethyl)-2-methyl-phenyl]-amide] | 6.77
11 | Cc1ccc(C(F)(F)F)cc1NC(=O)C1=CNC(=O)CC1c1cccc(F)c1 (stereo not shown) [Compound 50, 4-(3-Fluoro-phenyl)-6-oxo-1,4,5,6-tetrahydro-pyridine-3-carboxylic acid(2-methyl-5-trifluoromethyl-phenyl)-amide] | 6.89
12 | O=C1CC(c2ccccc2)C(C(=O)NC2CCc3ccccc32)=CN1 (stereo not shown) [Compound 136, 6-Oxo-4-phenyl-1,4,5,6-tetrahydro-pyridine-3-carboxylic acid indan-1-ylamide] | 5.412
13 | Cc1ccc(Cl)c(NC(=O)C2=CNC(=O)CC2c2cccc(F)c2)c1F (stereo not shown) [Compound 26, 4-(3-Fluoro-phenyl)-6-oxo-1,4,5,6-tetrahydro-pyridine-3-carboxylic acid(6-chloro-2-fluoro-3-methyl-phenyl)-amide] | 5.73
14 | COC(=O)c1cc(Br)c(NC(=O)C2=CNC(=O)CC2c2cccc(F)c2)cc1OC (stereo not shown) [Compound 23, 5-Bromo-4-{[4-(3-fluoro-phenyl)-6-oxo-1,4,5,6-tetrahydro-pyridine-3-carbonyl]-amino}-2-methoxy-benzoic acid methyl ester] | 5.92
15 | Cc1cccc(NC(=O)C2=CNC(=O)C[C@@H]2c2ccc(F)cc2)c1C [Compound 57, (R)-4-(4-Fluoro-phenyl)-6-oxo-1,4,5,6-tetrahydro-pyridine-3-carboxylic acid (2,3-dimethyl-phenyl)-amide] | 7.405
16 | COc1ccc(C)c(NC(=O)C2=CNC(=O)C[C@H]2c2cccc(F)c2)c1 [Compound 46, (S)-4-(3-Fluoro-phenyl)-6-oxo-1,4,5,6-tetrahydro-pyridine-3-carboxylic acid(5-methoxy-2-methyl-phenyl)-amide] | 7.695
17 | O=C1CC(c2cccc(F)c2)C(C(=O)Nc2cccc3c2CCCC3)=CN1 (stereo not shown) [Compound 53, 4-(3-Fluoro-phenyl)-6-oxo-1,4,5,6-tetrahydro-pyridine-3-carboxylic acid(5,6,7,8-tetrahydro-naphthalen-1-yl)-amide] | 6.83
18 | COc1cc(Br)c(NC(=O)C2=CNC(=O)CC2c2cccc(F)c2)cc1OC (stereo not shown) [Compound 17, 4-(3-Fluoro-phenyl)-6-oxo-1,4,5,6-tetrahydro-pyridine-3-carboxylic acid(2-bromo-4,5-dimethoxy-phenyl)-amide] | 6.77
19 | Cc1ccc(C)c(NC(=O)C2=CNC(=O)C[C@H]2c2ccc(F)cc2)c1 [Compound 56, (S)-4-(4-Fluoro-phenyl)-6-oxo-1,4,5,6-tetrahydro-pyridine-3-carboxylic acid (2,5-dimethyl-phenyl)-amide] | 6.56
20 | COc1cc(NC(=O)C2=CNC(=O)CC2c2cccc(F)c2)c(Br)cc1Cl (stereo not shown) [Compound 9, 4-(3-Fluoro-phenyl)-6-oxo-1,4,5,6-tetrahydro-pyridine-3-carboxylic acid(2-bromo-4-chloro-5-methoxy-phenyl)-amide] | 6.766
21 | Cc1ccc(S(N)(=O)=O)cc1NC(=O)C1=CNC(=O)CC1c1ccc(F)cc1 (stereo not shown) [Compound 67, 4-(4-Fluoro-phenyl)-6-oxo-1,4,5,6-tetrahydro-pyridine-3-carboxylic acid(2-methyl-5-sulfamoyl-phenyl)-amide] | 5.515
22 | COc1cc(Br)c(NC(=O)C2=CNC(=O)C[C@@H]2c2cccc(F)c2)cc1OC [Compound 34, (R)-4-(3-Fluoro-phenyl)-6-oxo-1,4,5,6-tetrahydro-pyridine-3-carboxylic acid(2-bromo-4,5-dimethoxy-phenyl)-amide] | 6.9783
23 | COc1cc(NC(=O)C2=CNC(=O)C[C@H]2c2cccc(F)c2)c(C)cc1F [Compound 82, (S)-4-(3-Fluoro-phenyl)-6-oxo-1,4,5,6-tetrahydro-pyridine-3-carboxylic acid(4-fluoro-5-methoxy-2-methyl-phenyl)-amide] | 7.975
24 | COc1cc(Br)c(NC(=O)C2=CN(C)C(=O)CC2c2ccc(F)cc2)cc1OC (stereo not shown) [Compound 31, 4-(4-Fluoro-phenyl)-1-methyl-6-oxo-1,4,5,6-tetrahydro-pyridine-3-carboxylic acid(2-bromo-4,5-dimethoxy-phenyl)-amide] | 6.525
25 | CCc1cc(Cl)c(OC)cc1NC(=O)C1=CNC(=O)C[C@H]1c1ccc(F)cc1 [Compound 118, (S)-4-(4-Fluoro-phenyl)-6-oxo-1,4,5,6-tetrahydro-pyridine-3-carboxylic acid(4-chloro-2-ethyl-5-methoxy-phenyl)-amide] | 7.075
